According to publication PMC9706575 (Journal of Medicinal Chemistry, 2022):
pKd: −log10 of the molar value.

Key:
[1] = mouse, in vivo, iv
targefrin = experiment: ITC; reverse titration: 200 μM protein in the syringe, 20 injections of 2.5 μL into 10 μM compound in the cell; 25 mM Tris pH 7.5, 150 mM NaCl, 1% DMSO, 25 °C

ephrin type-A receptor 2 ligand-binding domain, sequence (P29317 27-200): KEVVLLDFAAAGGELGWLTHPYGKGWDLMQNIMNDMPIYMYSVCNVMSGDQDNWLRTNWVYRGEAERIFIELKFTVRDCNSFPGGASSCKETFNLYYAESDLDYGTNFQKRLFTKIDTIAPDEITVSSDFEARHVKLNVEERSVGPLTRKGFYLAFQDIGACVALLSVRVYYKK

| Compound | Body weight (g), Friday [1] [g] | Body weight (g), Thursday [1] [g] | Body weight (g), Wednesday [1] [g] | pKd (targefrin) | dH (targefrin) [kcal/mol] |
| --- | --- | --- | --- | --- | --- |
| CC(=O)O[C@H]1C(=O)[C@@]2(C)[C@H]([C@H](OC(=O)c3ccccc3)[C@]3(O)C[C@H](OC(=O)[C@H](O)[C@@H](NC(=O)c4ccccc4)c4ccccc4)C(C)=C1C3(C)C)[C@]1(OC(C)=O)CO[C@@H]1C[C@@H]2O [PTX, paclitaxel] | 22.11 | 21.95 | 21.85 |  |  |
| ephrin type-A receptor 2 ligand-binding domain (from UniProt P29317 27-200) (domain or fragment) |  |  |  | 7.66 | -20.2 |
